Data set [1] can be described thus: pH-dependent solubility study of CFZ-HCl (Flynn approach). It is filed as physicochemical. As for the experimental part: Solubility Measurement Using the Flynn Approach. […] Mili-Q water (15 mL) was added to each vial ensuring that CFZ-HCl crystals were in great excess. Moreover, an appropriate amount of 0.1 M NaOH was added to each vial to set the initial equilibration pH measurements as follows: […] The set of sample containing vials was placed on a magnetic stirrer plate in a 25° C. water bath. […] The pH of the filtered sample was determine by Denver Instrument UltraBasic pH meter (Denver Instrument, Bohemia, N.Y.), after which the sample was subjected to HPLC analysis (Waters Alliance, Separations Module 2695) to determine the total solubility of the drug at the measured pH. […] The retention time for CFZ was determined to be at 4.75 min. […] Thus, in order to fit the experimental solubility-pH data curve of CFZ-HC, it was determined which one of the aforementioned solubility-pH relationships (equation 8 vs. equation 9) to use. […] Then, a value, say “y”, from the list of the computed [CFZH^+] values was set equal [CFZH+]S. By substituting “y' in place of [CFZH+]S, total solubility at the different pH values was calculated using the solubility-pH equation where the intrinsic salt is the primary solid species (equation 15). […]

The test system of a further data set is RAW264.7 cells. Description: Cell viability (XTT assay). The format is cell-based. Conditions: for cell viability: n=6. As to the method:
Cell Viability. Viability of RAW264.7 cells were performed using Cell Proliferation Kit II (XTT) (Roche Applied Science, Mannheim, Germany, Cat. No. 11465015001) using the manufacturer's instructions. […] Post 24 hours exposure to CFZ, the cells were incubated with the yellow XTT solution (final concentration 0.3 mg/ml) for 4 h. […] An increase in number of living cells directly correlates to the amount of orange formazan formed, as monitored by the solution absorbance at 500 nm (Abs500). The following formula was used to determine viability of drug and inhibitor treated cells using untreated cells (blank) as a control—Cell Viability=(Abs500, treated—Abs700,treated)/(Abs500, blank—Abs700,blank).

One may read the cell viability as the share of living cells, or the viability signal relative to a control. Low values mean a greater loss of cells, high ones better survival.

Where a name gives a salt, the structure may show the parent alone.

`CC(C)/N=c1\cc2n(-c3ccc(Cl)cc3)c3ccccc3nc-2cc1Nc1ccc(Cl)cc1` [CFZ-HCl, Clofazimine Hydrochloride]: the “solubility versus unprotonated CFZ free base” value in data set [1] (dissolved in pure water) is “greater solubility”. For the same molecule, in data set [1] (from pH-solubility profile, 25° C.), the pHmax is 4.5±7.11×10^−15.

For the molecule `CO/C1=C\C(C)=C\[C@@H](C)[C@@H](O)[C@@H](C)C/C(C)=C/C=C/[C@H](OC)[C@@H]([C@@H](C)[C@@H](O)[C@H](C)[C@@]2(O)C[C@@H](O)[C@H](C)[C@@H](C(C)C)O2)OC1=O` [BafA1, bafilomycin A1], the cell viability in the data set with RAW264.7 cells (BafA1 alone at 6 nM) was determined as 65±25%; in the data set with RAW264.7 cells (BafA1 alone at 8 nM), 33±6%.

For `O=C(O)c1cc([N+](=O)[O-])ccc1NCCCc1ccccc1` [NPPB], in the data set on RAW264.7 cells, the “effect on cell viability” value is recorded as “no significant effect”.

Values taken from patent US20190262453A1, “DESIGN AND COMPOSITION OF CELL-STABILIZED PHARMACEUTICAL FORMULATIONS” (THE REGENTS OF THE UNIVERSITY OF MICHIGAN, priority 2016, published 2019).
